According to article PMC6504873, “High-throughput screening of the Plasmodium falciparum cGMP-dependent protein kinase identified a thiazole scaffold which kills erythrocytic and sexual stage parasites” (Scientific Reports, 2019):
≈ marks a conversion by molar mass, not a printed value.

What was measured:
WT PfPKG = biological target: T1, WT PfPKG (Plasmodium falciparum, UniProt Q8I719); experiment: Kinase Glo enzymatic assay, recombinant WT PfPKG; type: biochemical, P. falciparum; conditions: WT PfPKG (μM), recombinant WT PfPKG
T1 construct: recombinant full length wild type (WT) PfPKG; His6 (N); host or cells: E. coli BL21
T1 sequence (Q8I719 whole entry): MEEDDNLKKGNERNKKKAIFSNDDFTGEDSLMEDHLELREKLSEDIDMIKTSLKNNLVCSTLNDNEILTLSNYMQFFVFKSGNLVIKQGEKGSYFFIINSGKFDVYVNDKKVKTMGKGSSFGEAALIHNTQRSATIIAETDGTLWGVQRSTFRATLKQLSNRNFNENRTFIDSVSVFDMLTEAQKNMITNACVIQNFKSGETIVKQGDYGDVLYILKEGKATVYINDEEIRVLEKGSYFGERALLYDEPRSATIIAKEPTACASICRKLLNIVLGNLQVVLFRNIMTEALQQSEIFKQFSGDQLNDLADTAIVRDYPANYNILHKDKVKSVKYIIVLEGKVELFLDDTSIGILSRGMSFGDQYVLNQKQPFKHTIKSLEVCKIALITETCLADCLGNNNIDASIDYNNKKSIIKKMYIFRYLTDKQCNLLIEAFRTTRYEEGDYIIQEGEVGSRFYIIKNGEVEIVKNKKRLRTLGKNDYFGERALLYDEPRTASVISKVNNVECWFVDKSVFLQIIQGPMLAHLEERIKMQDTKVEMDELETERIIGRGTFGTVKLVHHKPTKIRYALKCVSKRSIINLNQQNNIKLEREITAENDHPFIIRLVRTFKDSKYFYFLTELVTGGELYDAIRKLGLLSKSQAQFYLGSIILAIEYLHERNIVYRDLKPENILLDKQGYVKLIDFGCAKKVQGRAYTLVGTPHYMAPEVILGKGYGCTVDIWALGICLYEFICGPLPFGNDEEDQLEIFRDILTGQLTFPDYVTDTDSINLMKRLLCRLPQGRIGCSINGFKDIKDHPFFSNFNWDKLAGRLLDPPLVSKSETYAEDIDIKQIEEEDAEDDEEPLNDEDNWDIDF
Procedure: To identify new PKG inhibitor scaffolds, the 1.7 million GlaxoSmithKline Full Diversity collection was tested at a single final concentration of 10 μM against recombinant full length wild type (WT) PfPKG using a Kinase Glo-based assay (Promega). The results gave a robust Z′ mean value of 0.85. At an average statistical cut-off of 30%, 20,174 primary hits were identified with an overall hit rate of 1%. Fresh samples of these primary hits were tested in duplicate against WT PfPKG and also against human PKGIα (HuPKGIα) (Supplementary Fig. 1) at a final concentration of 10 μM (confirmation step).
(§1) Protein production was outsourced to the Division of Signal Transduction Therapy, University of Dundee. Briefly, the pTRChis expression vectors (Invitrogen) containing an N-terminally His6-tagged PfPKG wildtype and T618Q were used to transform BL21 cells (protocol adapted from[23]). The cells were grown at 37 °C until the OD600 was 0.4–0.6 then the temperature was reduced to 15 °C and the cells were induced with 250 µM IPTG and grown for a further 16–18 hours before harvesting. The His6-PfPKG was purified on Cobalt agarose followed by gel filtration and the protein was dialysed into 25 mM Hepes pH 7.5, 0.1 mM EGTA, 150 mM NaCl, 50% glycerol and 2 mM DTT.
(§2) Initial optimization of the PKG assay was performed manually in 384-well plates and analysed with GraFit 7. The buffer for all assays was 25 mM HEPES pH 7.3 (GIBCO), 10 mM MgCl2 (Sigma), 2 mM DTT (Sigma), 0.01 mM cGMP (Sigma), 0.1 mg/ml BSA (Ambion). Enzymatic activity was tested using a luminescence-based kit (Promega KinaseGlo). Addition of the first reagent depletes the unused ATP and addition of the second reagent converts ADP (product of the kinase reaction) to ATP, which is then measured through a luciferin/luciferase reaction. The amount of luminescence is directly proportional to ATP turnover by the kinase. The kit was chosen because it can be miniaturized to small volumes (i.e. 4 µl) in 1536-well plates, for use in HTS.
(§3) We used PKA peptide substrate (SCP0212, Sigma-Aldrich) for WT and TQ PfPKG, dissolved in milliQ water at a final concentration of 5 mM, and Long S6 peptide substrate (produced at the University of Dundee, sequence […]) for HuPKGIα, dissolved in water at a final concentration of 30 mM.
(§4) We calculated the Michaelis-Menten (Km) constant for ATP and peptide substrate (PKA or Long S6) for all enzymes using GraphPad Prism (Supplementary Figs 2 and 3 and Supplementary Table 3). In order to identify different types of PKG inhibitors, including ATP competitive or non-competitive inhibitors, as well as inhibitors that bind to the peptide substrate pocket, we performed all assays using ATP and peptide substrate at a concentration equal to the Km. We also determined enzyme activity by calculating ATP turnover (Kcat) over the Km (Supplementary Table 3). The Kcat was calculated as (Vmax*slope)/[E] where Vmax is the maximum velocity and [E] is the concentration of the enzyme.
(§5) The plates containing the compounds were prepared at GSK in Upper Providence or Stevenage. Compounds were tested at a single final concentration of 10 µM or in a dose response with a range of concentrations starting from 100 μM to 1.6 nM (1 in 3 serial dilutions). Compounds were dispensed in the plates at the required concentration in a 40 nl volume. All plates (1536-well white Greiner) contained 40 nl of DMSO in lanes 11 and 12 (control 1, 100% enzyme activity) and were empty in lanes 35 and 36 (control 2, 0% enzyme activity). The plates were removed from −20 °C 1 hour before starting the assay. Using a Multidrop Combi dispenser (Thermo Scientific), 2 µl of the buffer containing ATP and the substrate were added to all wells then 2 µl of buffer only were added to column 35 and 36. Finally 2 µl of buffer containing the enzyme were dispensed in all the plate wells except for lanes 35 and 36. […]

TQ PfPKG (PfPKG_T618Q) = biological target: T2, TQ PfPKG (PfPKG_T618Q) (Plasmodium falciparum, UniProt Q8I719, T618Q); experiment: Kinase Glo enzymatic assay, gatekeeper mutant TQ PfPKG; type: biochemical, P. falciparum
T2 construct: His6 (N); host or cells: E. coli BL21
T2 sequence (Q8I719 whole entry T618Q): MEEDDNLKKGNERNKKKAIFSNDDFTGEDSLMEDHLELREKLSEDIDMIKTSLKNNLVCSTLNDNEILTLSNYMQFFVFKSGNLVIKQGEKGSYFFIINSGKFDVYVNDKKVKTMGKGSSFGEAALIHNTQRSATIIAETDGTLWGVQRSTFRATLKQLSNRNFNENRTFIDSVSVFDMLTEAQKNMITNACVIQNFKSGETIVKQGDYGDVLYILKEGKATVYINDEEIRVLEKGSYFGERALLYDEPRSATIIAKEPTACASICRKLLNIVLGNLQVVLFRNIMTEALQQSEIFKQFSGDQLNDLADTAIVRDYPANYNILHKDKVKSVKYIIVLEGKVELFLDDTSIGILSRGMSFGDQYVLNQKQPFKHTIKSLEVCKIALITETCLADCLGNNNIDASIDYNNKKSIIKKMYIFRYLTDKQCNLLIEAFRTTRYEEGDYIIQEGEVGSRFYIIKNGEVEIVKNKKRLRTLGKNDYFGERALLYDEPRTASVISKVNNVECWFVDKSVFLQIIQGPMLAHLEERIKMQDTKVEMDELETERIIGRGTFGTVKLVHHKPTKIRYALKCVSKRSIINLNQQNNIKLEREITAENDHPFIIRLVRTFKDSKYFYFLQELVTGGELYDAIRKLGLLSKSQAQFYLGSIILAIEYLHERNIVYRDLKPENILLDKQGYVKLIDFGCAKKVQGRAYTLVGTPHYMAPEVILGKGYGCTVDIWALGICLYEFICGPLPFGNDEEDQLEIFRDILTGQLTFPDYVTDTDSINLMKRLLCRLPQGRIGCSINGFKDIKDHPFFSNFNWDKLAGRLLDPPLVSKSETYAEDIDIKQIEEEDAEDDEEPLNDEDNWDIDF
Procedure: Taking advantage of the availability of more than 3,000 thiazole derivatives among the GSK compound collection, cluster 3 was thoroughly investigated for potent and selective inhibitors of WT PfPKG. […] We explored the binding mode by also testing compounds on the gatekeeper mutant enzyme TQ PfPKG. […] These two time points were chosen to give an indication of the speed of kill of the compounds. […] A preliminary safety test was performed on human AuroraB and LCK kinases which often underpin toxicity issues. […] Further assays for compound characterization included determination of solubility and cytotoxicity (HepG2 inhibition). Thiazoles have been previously identified as human BRaf inhibitors that are used to treat melanoma.
as §1, §2, §3, §4
as §5, with “36.” for “36. Finally 2 µl of buffer containing the enzyme were dispensed in all the plate wells except for lanes 35 and 36.”

HepG2 cells = experiment: Cytotoxicity assay (CellTiter-Glo); type: cell-based; conditions: Homo sapiens, HepG2, read-out: HepG2 (μM)
Procedure: Cytotoxicity assays were performed on HepG2 cells as previously described. HepG2 cells were removed from a T-175 TC flask using 5 mL Eagle’s MEM (containing 10% FBS, 1% NEAA, 1% penicillin/streptomycin) and dispersed in the medium. Seeding density was checked to ensure that new mono-layers were not more than 50% confluent at the time of harvesting. Cells were added to 500 mL of the same medium at a final density of 1.2 × 10^5 cells/mL. They were then dispensed (25 μL, about 3,000 cells per well) into 384-well clear-bottom plates using a Multidrop Combi dispenser. Test compounds (250 nL) were dispensed into the plates with an EchoH liquid handler prior to addition of the cells. Plates were incubated for 48 h at 37 °C, 5% CO2. After incubation, plates were equilibrated at room temperature for 30 minutes before proceeding to develop the luminescent signal. The CellTiter-GloH Reagent was allowed to equilibrate at room temperature for 30 minutes and added to the plates (25 μL per well) using a Multidrop Combi dispenser. Plates were left for 10 minutes at room temperature for stabilization and then read using a Perkin Elmer ViewLux.

[1] = Aqueous kinetic solubility assay (CAD); type: physicochemical; conditions: several values in a cell = replicates
Procedure: […] of 10 mM DMSO compound solution is diluted to 100 μl with pH7.4 phosphate buffered saline, equilibrated for 1 hour at room temperature and filtered through Millipore MultiscreenHTS-PCF filter plates (MSSL BPC). The filtrate is quantified by suitably calibrated Charged Aerosol Detector[56].

PFI = type: physicochemical
Procedure: Dose response assays were performed in duplicate on WT PfPKG, HuPKGIα and a mock assay performed in the absence of enzyme (the counterscreen). Comparison of the PfPKG and HuPKGIα IC50 values gave information on selectivity and the counterscreen identified luminescent false positive compounds (see Materials and Methods). Cytotoxicity assays were also performed using a human hepatoma cell line (HepG2)[30]. […] This set of compounds was clustered by similarity using a complete-linkage algorithm and a threshold of 0.55[31]. A total of 79 clusters and 54 singletons were obtained.

PI3KD = PI3KD (Homo sapiens, UniProt O00329); experiment: Preliminary safety test on human PI3KD kinase; type: biochemical
PI3KD, sequence (O00329 whole entry): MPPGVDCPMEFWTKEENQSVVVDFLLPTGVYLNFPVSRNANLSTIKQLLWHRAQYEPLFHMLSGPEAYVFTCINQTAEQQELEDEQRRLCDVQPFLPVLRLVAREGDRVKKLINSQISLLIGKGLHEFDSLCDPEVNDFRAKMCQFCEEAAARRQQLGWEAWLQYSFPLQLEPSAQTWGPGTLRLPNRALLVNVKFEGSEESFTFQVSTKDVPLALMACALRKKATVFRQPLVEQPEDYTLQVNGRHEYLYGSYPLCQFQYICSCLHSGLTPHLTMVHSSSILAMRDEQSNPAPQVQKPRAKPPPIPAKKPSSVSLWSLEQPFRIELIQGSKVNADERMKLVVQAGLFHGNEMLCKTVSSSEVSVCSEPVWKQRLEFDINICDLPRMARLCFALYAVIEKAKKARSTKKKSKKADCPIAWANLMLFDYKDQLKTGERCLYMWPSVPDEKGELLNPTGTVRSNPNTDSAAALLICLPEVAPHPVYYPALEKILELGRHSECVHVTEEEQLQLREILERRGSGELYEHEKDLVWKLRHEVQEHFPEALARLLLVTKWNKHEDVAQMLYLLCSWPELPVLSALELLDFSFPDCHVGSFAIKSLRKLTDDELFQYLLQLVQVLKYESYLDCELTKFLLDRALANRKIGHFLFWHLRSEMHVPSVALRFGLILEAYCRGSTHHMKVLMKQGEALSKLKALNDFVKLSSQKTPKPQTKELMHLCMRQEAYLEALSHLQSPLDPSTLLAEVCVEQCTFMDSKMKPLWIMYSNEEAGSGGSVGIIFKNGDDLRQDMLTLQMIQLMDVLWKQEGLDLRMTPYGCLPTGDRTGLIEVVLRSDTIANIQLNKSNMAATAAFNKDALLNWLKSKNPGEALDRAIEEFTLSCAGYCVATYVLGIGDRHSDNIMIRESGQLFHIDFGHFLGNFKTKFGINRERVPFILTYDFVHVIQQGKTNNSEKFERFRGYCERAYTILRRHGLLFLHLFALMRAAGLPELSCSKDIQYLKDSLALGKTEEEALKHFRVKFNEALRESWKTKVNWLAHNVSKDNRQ
PI3KD, sequence (P27986 whole entry partner): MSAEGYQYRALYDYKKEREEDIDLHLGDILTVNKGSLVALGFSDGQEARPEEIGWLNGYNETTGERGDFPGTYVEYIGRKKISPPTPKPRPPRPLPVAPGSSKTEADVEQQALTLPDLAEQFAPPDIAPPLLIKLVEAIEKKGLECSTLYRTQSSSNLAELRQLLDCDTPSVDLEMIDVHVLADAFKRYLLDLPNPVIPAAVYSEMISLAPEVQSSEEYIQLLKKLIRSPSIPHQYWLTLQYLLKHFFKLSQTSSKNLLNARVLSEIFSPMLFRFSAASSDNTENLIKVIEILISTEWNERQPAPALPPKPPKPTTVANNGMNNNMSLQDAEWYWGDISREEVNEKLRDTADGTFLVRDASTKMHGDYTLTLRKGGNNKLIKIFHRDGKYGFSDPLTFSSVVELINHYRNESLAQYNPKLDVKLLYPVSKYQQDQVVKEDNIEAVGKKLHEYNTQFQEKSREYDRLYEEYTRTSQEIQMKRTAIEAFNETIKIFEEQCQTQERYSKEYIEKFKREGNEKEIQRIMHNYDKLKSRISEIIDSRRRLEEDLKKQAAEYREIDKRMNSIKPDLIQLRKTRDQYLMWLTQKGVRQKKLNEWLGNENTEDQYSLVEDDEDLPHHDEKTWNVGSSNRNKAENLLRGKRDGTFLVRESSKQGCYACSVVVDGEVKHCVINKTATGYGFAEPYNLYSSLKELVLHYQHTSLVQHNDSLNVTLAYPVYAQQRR

[2] = AM_Perm (artificial membrane permeability); type: in vitro ADME; conditions: PAMPA
[3] = ChromlogD (lipophilicity)
P. falciparum = test system: P. falciparum; design: method as in PMID 28446690; conditions: P. falciparum mouse model ref 44; cited from earlier work
P. berghei = test system: P. berghei; design: method as in PMID 28446690; conditions: P. berghei mouse model ref 44; cited from earlier work
[4] = design: method as in PMID 24958809; conditions: in the clinic ref 39; cited from earlier work

`Nc1nccc(-c2c(-c3ccc(F)cc3)ncn2C2CCNCC2)n1` [Compound 1] showed an IC50 (WT PfPKG) of 0.066 µM, an IC50 (TQ PfPKG (PfPKG_T618Q)) greater than 100 µM and an IC50 (HepG2 cells) greater than 100 µM. The solubility at 1 h ([1]; pH 7.4, aqueous buffer, kinetic from dmso stock) was 155 µM (≈ 52.5 µg/mL), the solubility at 1 h [1] was 291 µM (≈ 98.5 µg/mL) and the PFI (PFI) was 3.8. For the same compound, the IC50 (PI3KD) was greater than 50.1 µM, the AM Perm [2] was 9.1 ×10⁻⁶ cm/s and the chromatographic logD [3] was 0.8.
For `CS(=O)(=O)c1ccc(-c2cnc(N)c(-c3ccc(C(F)(F)F)nc3)c2)cc1` [MMV390048], the ED90 (P. falciparum) is listed as 0.57 mg/kg and the ED90 (P. berghei) is listed as 1.1 mg/kg.
For `CC(C)(C)c1nc(-c2cccc(NS(=O)(=O)c3c(F)cccc3F)c2F)c(-c2ccnc(N)n2)s1` [dabrafenib], the “patients experiencing severe adverse events” value [4] is listed as 24%.
